{
  "source": "patent US12435060B2",
  "about": "“Acylamino bridged heterocyclic compound, and composition and application thereof” (BEIJING SCITECH-MQ PHARMACEUTICALS LIMITED, priority 2019, dated 2025)",
  "data": [
    {"system": "HT29 cells", "experiment": "Inhibition of cell necrosis (CCK8 method), induced programmed necrosis of HT29 cells", "type": "cell-based", "conditions": "Homo sapiens, HT-29; rescue from necrosis induced by TNF-α 20 ng/mL, AT-406 1 μM, Z-VAD-FMK 20 μM; 16-20 hours; CCK-8, OD 450 nm", "method_in_brief": "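Rescue from programmed necrosis was scored by CCK-8 absorbance at 450 nm after 16-20 h of TNF-α (20 ng/mL), AT-406 (1 μM) and Z-VAD-FMK (20 μM) at 37 °C, 5% CO2. HT29 cells had received compound 30 min earlier across nine 4-fold dilutions (top 25000 nM final). IC50 came from % inhibition relative to uninduced and induced-only wells.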", "units": {"IC50": "µM"}, "values": [
      {"smiles": "O=C(Nc1cc(-c2cc(OCCC3CCOCC3)ccc2F)ccn1)c1nnc(Cc2ccccc2F)[nH]1", "note": "[Example 316, N-(4-(2-fluoro-5-(2-(tetrahydro-2H-pyran-4-yl)ethoxy)phenyl)pyridin-2-yl)-5-(2-fluorobenzyl)-4H-1,2,4-triazole-3-carboxamide]", "IC50": "0.1 to 1"},
      {"smiles": "O=C(Nc1cc(-c2cc(OCCC3CCOCC3)ccc2F)ccn1)c1nnc(CC2CCCCC2)[nH]1", "note": "[Example 317, 5-(cyclohexylmethyl)-N-(4-(2-fluoro-5-(2-(tetrahydro-2H-pyran-4-yl)ethoxy)phenyl)pyridin-2-yl)-4H-1,2,4-triazole-3-carboxamide]", "IC50": "≤ 0.1"},
      {"smiles": "CC(C)(O)CCCOc1ccc(F)c(-c2cc(NC(=O)c3nnc(Cc4ccccc4F)[nH]3)ncc2F)c1", "note": "[Example 318, N-(5-fluoro-4-(2-fluoro-5-((4-hydroxy-4-methylpentyl)oxy)phenyl)pyridin-2-yl)-5-(2-fluorobenzyl)-4H-1,2,4-triazole-3-carboxamide]", "IC50": "≤ 0.1"},
      {"smiles": "CC(C)(O)CCCOc1ccc(F)c(-c2cc(NC(=O)c3nnc(CC4CCCCC4)[nH]3)ncc2F)c1", "note": "[Example 319, 5-(cyclohexylmethyl)-N-(5-fluoro-4-(2-fluoro-5-((4-hydroxy-4-methylpentyl)oxy)phenyl)pyridin-2-yl)-4H-1,2,4-triazole-3-carboxamide]", "IC50": "≤ 0.1"},
      {"smiles": "CC(C)(O)CCCOc1ccc(F)c(-c2cc(NC(=O)c3nnc(Cc4ccccc4F)[nH]3)ncc2Cl)c1", "note": "[Example 320, N-(5-chloro-4-(2-fluoro-5-((4-hydroxy-4-methylpentyl)oxy)phenyl)pyridin-2-yl)-5-(2-fluorobenzyl)-4H-1,2,4-triazole-3-carboxamide]", "IC50": "0.1 to 1"},
      {"smiles": "CC(C)(O)CCCOc1ccc(F)c(-c2cc(NC(=O)c3nnc(CC4CCCCC4)[nH]3)ncc2Cl)c1", "note": "[Example 321, N-(5-chloro-4-(2-fluoro-5-((4-hydroxy-4-methylpentyl)oxy)phenyl)pyridin-2-yl)-5-(cyclohexylmethyl)-4H-1,2,4-triazole-3-carboxamide]", "IC50": "0.1 to 1"},
      {"smiles": "Cc1cnc(NC(=O)c2nnc(Cc3ccccc3F)[nH]2)cc1-c1cc(OCCCC(C)(C)O)ccc1F", "note": "[Example 322, N-(4-(2-fluoro-5-((4-hydroxy-4-methylpentyl)oxy)phenyl)-5-methylpyridin-2-yl)-5-(2-fluorobenzyl)-4H-1,2,4-triazole-3-carboxamide]", "IC50": "0.1 to 1"},
      {"smiles": "CCC(O)(CC)CCCOc1ccc(F)c(-c2cc(NC(=O)c3nnc(Cc4ccccc4F)[nH]3)ncc2Cl)c1", "note": "[Example 323, N-(5-chloro-4-(5-((4-ethyl-4-hydroxyhexyl)oxy)-2-fluorophenyl)pyridin-2-yl)-5-(2-fluorobenzyl)-4H-1,2,4-triazole-3-carboxamide]", "IC50": "0.1 to 1"},
      {"smiles": "CCC(O)(CC)CCCOc1ccc(F)c(-c2cc(NC(=O)c3nnc(CC4CCCCC4)[nH]3)ncc2Cl)c1", "note": "[Example 324, 5-(cyclohexylmethyl)-N-(5-chloro-4-(5-((4-ethyl-4-hydroxyhexyl)oxy)-2-fluorophenyl)pyridin-2-yl)-4H-1,2,4-triazole-3-carboxamide]", "IC50": "0.1 to 1"},
      {"smiles": "CC(C)(O)CCCCOc1ccc(F)c(-c2cc(NC(=O)c3nnc(Cc4ccccc4F)[nH]3)ncc2Cl)c1", "note": "[Example 325, N-(5-chloro-4-(2-fluoro-5-((5-hydroxyl-5-methylhexyl)oxy)phenyl)pyridin-2-yl)-5-(2-fluorobenzyl)-4H-1,2,4-triazole-3-carboxamide]", "IC50": "0.1 to 1"},
      {"smiles": "CC(C)(O)CCCCOc1ccc(F)c(-c2cc(NC(=O)c3nnc(CC4CCCCC4)[nH]3)ncc2Cl)c1", "note": "[Example 326, 5-(cyclohexylmethyl)-N-(5-chloro-4-(2-fluoro-5-((5-hydroxyl-5-methylhexyl)oxy)phenyl)pyridin-2-yl)-4H-1,2,4-triazole-3-carboxamide]", "IC50": "0.1 to 1"},
      {"smiles": "O=C(Nc1cc(-c2cc(OCC3CCOCC3)ccc2F)c(F)cn1)c1nnc(Cc2ccccc2F)[nH]1", "note": "[Example 327, N-(5-fluoro-4-(2-fluoro-5-((tetrahydro-2H-pyran-4-yl)methoxy)phenyl)pyridin-2-yl)-5-(2-fluorobenzyl)-4H-1,2,4-triazole-3-carboxamide]", "IC50": "≤ 0.1"}
    ]}
  ]
}
